# Target: T1, T. thermophilus SAM complex (TtSAM; Sam50:Sam35:Sam37) (Thermothelomyces thermophilus, UniProt G2QFF9)
# T1 construct: gene MYCTH_2094326; codon-optimized, co-expressed in S. cerevisiae W303.1B; Strep-Tactin purified monomeric 1:1:1 complex in LMNG/GDN or GDN; 10xHis or TwinStrep tags with linkers and TEV sites in some constructs; with Sorting and assembly machinery subunit Sam35; Sorting and assembly machinery subunit Sam37
# Assay: cryo-EM structure; LC/MS of purified complex
# Type: binding
# Settings: co-purified from yeast membranes; modelled on back side of Sam50 barrel and beneath Sam37 cytosolic domain
# T1 sequence (G2QFF9 entry or part of it): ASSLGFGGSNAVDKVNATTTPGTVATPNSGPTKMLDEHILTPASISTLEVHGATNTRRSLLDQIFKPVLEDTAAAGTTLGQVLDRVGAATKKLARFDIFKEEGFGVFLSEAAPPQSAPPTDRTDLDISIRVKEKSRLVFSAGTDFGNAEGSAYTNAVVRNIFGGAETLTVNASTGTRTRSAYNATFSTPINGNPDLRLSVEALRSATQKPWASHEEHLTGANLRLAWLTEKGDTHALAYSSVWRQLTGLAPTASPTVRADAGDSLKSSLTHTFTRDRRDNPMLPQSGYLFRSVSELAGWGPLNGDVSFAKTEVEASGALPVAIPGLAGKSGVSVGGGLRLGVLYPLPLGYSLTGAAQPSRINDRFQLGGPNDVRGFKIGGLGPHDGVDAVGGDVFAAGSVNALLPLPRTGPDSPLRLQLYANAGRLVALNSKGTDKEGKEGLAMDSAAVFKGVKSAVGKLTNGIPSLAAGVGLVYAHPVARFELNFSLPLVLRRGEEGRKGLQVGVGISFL
# T1 sequence (G2Q6R7 entry or part of it, further chain): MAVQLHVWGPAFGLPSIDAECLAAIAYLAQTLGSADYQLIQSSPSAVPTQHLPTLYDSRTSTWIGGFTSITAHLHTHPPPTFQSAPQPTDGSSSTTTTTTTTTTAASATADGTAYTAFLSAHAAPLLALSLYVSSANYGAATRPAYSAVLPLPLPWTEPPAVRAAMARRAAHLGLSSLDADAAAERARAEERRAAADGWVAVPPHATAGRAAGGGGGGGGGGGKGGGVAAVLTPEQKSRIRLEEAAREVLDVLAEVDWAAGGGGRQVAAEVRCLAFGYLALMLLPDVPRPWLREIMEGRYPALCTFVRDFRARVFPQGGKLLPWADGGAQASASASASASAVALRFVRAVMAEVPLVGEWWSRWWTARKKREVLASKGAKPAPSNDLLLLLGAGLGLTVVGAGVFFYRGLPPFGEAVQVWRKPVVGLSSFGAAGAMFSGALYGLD
# T1 sequence (G2QAT9 entry or part of it, further chain): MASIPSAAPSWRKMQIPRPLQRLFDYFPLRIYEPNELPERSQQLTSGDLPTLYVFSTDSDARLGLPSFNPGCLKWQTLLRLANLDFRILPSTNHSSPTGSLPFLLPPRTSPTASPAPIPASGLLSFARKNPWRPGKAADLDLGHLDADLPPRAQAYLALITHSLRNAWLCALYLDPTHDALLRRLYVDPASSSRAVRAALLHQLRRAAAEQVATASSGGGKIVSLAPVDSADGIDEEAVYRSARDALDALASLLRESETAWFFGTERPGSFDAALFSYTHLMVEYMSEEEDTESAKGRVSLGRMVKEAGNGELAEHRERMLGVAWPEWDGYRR
compound,measurement,value
CC(C)[C@@H](C)/C=C/[C@@H](C)[C@H]1CC[C@H]2C3=CC=C4C[C@@H](O)CC[C@]4(C)[C@H]3CC[C@]12C [ergosterol],cryo-EM structure; LC/MS of purified complex,We have modeled these lipids as ergosterol molecules
